The Km is the substrate concentration at which the rate is half of its maximum.

One experiment deals with T1, EstPS1.
T1 construct: full-length ORF with signal peptide (24 residues) and autotransporter domain (357-640); N-terminal His-tag, pET-28a, E. coli BL21(DE3), Ni-NTA; 640 residues, 68 kDa
Kind of experiment: pesticide hydrolysis, gas chromatography, Lineweaver-Burk. Type of experiment: biochemical, Pseudomonas synxantha. The following applies: 50 mM Tris-HCl pH 8.0, 40 °C (degradation assay); stated substrate range 10 to 500 μM. An excerpt: pesticide hydrolysis, gas chromatography, Lineweaver-Burk on EstPS1
As for `CNC(=O)Oc1cccc2ccccc12` [Carbaryl], the Km turned out to be 0.21 ± 0.01 µM.
Same read-out and setting: the result for `Cc1c(COC(=O)[C@@H]2[C@H](/C=C(\Cl)C(F)(F)F)C2(C)C)cccc1-c1ccccc1` (racemic) [Bifenthrin] reads 1.25 ± 0.061 µM; that for `CC(C)C(C(=O)OC(C#N)c1cccc(Oc2ccccc2)c1)c1ccc(Cl)cc1` (stereo not drawn) [Fenvalerate], 0.84 ± 0.042 µM; that for `CC1(C)C(C=C(Cl)Cl)C1C(=O)OC(C#N)c1cccc(Oc2ccccc2)c1` (stereo not drawn) [cis-Cypermethrin], 0.62 ± 0.031 µM.
The same measure, in the same setting: the result for `CC1(C)C(C(=O)OC(C#N)c2cccc(Oc3ccccc3)c2)C1(C)C` (stereo not drawn) [Fenpropathrin] reads 0.25 ± 0.014 µM; that for `CC1(C)C(C=C(Cl)Cl)C1C(=O)OC(C#N)c1cccc(Oc2ccccc2)c1` (stereo not drawn) [trans-Cypermethrin], 0.53 ± 0.028 µM.

Another experiment deals with T1, EstPS1. Nature of the experiment: p-nitrophenol release at […] nm, Lineweaver-Burk. Type of experiment: biochemical, Pseudomonas synxantha. The following applies: 50 mM Tris-HCl pH 8.0, 60 °C.
Take `CCCCCCCC(=O)Oc1ccc([N+](=O)[O-])cc1` [p-Nitrophenyl caprylate]: the Km worked out at 61 ± 10 µM.
Still for that read-out and setting: the result for `CCCCCCCCCCCC(=O)Oc1ccc([N+](=O)[O-])cc1` [p-Nitrophenyl laurate] reads 391 ± 9 µM; that for `CCCCCCCCCC(=O)Oc1ccc([N+](=O)[O-])cc1` [p-Nitrophenyl decanoate], 362 ± 13 µM; that for `CCCC(=O)Oc1ccc([N+](=O)[O-])cc1` [p-Nitrophenyl butyrate], 43 ± 8 µM.
On the same count and under the same terms, in the case of `CC(=O)Oc1ccc([N+](=O)[O-])cc1` [p-Nitrophenyl acetate] it was 102 ± 12 µM; in that of `CCCCCC(=O)Oc1ccc([N+](=O)[O-])cc1` [p-Nitrophenyl caproate], 76 ± 7 µM.

The values are drawn from article PMC5471204, “Autotransporter domain-dependent enzymatic analysis of a novel extremely thermostable carboxylesterase with high biodegradability towards pyrethroid pesticides” (Scientific Reports, 2017).
